Data published in doi:10.64898/2025.12.21.695763v2 (biorxiv, 2026).
pKd: −log10 of the molar value.

Target: T1, Mth α-subunit (NrdE) of Class Ib ribonucleotide reductase (Mycolicibacterium thermoresistibile, UniProt G7CEK2)
T1 sequence (G7CEK2 1-693): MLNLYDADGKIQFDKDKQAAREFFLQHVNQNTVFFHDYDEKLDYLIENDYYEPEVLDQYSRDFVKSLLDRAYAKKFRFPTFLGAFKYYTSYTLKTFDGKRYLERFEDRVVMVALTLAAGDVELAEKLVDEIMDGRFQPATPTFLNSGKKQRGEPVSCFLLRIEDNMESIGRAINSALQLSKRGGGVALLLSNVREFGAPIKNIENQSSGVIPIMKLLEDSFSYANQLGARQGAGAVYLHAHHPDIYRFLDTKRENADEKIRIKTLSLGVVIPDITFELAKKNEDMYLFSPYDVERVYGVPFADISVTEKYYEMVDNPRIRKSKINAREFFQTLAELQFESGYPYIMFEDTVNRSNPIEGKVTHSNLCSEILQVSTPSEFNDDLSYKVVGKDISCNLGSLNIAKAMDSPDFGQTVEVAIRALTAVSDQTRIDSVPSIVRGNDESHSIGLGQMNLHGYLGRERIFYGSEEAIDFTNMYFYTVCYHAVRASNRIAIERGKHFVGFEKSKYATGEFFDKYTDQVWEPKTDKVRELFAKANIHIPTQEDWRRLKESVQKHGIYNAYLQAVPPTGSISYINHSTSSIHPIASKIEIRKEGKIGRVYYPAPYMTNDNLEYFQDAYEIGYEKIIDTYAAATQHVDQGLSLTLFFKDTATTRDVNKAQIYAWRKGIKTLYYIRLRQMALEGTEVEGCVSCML
Test: isothermal titration calorimetry
Type: binding

| SMILES | pKd |
| --- | --- |
| Nc1nc2c(ncn2[C@H]2C[C@H](O)[C@@H](COP(=O)(O)OP(=O)(O)OP(=O)(O)O)O2)c(=O)[nH]1 [dGTP] | 5.34 |
| Nc1ccn([C@H]2C[C@H](O)[C@@H](COP(=O)(O)OP(=O)(O)OP(=O)(O)O)O2)c(=O)n1 [dCTP] | 5.18 |
| Nc1ncnc2c1ncn2[C@H]1C[C@H](O)[C@@H](COP(=O)(O)OP(=O)(O)OP(=O)(O)O)O1 [dATP] | 5.96 |
| Cc1cn([C@@H]2O[C@H](COP(=O)(O)OP(=O)(O)OP(=O)(O)O)[C@@H](O)[C@H]2O)c(=O)[nH]c1=O [TTP] | 6.19 |
| Cc1cn([C@H]2C[C@H](O)[C@@H](COP(=O)(O)OP(=O)(O)OP(=O)(O)O)O2)c(=O)[nH]c1=O [dTTP] | 5.48 |
